Results from US5506244A, “Cyclic amino acid derivatives” (Ciba-Geigy Corporation, priority 1994, dated 1996).
Like-named read-outs stand apart in the source and are kept apart here.

Assays:
[1] = biological target: T1, angiotensin-converting enzyme (ACE) (Oryctolagus cuniculus, UniProt P12822); assay: in vitro inhibition of angiotensin-converting enzyme (ACE); assay type: biochemical
T1 sequence (P12822 34-1310): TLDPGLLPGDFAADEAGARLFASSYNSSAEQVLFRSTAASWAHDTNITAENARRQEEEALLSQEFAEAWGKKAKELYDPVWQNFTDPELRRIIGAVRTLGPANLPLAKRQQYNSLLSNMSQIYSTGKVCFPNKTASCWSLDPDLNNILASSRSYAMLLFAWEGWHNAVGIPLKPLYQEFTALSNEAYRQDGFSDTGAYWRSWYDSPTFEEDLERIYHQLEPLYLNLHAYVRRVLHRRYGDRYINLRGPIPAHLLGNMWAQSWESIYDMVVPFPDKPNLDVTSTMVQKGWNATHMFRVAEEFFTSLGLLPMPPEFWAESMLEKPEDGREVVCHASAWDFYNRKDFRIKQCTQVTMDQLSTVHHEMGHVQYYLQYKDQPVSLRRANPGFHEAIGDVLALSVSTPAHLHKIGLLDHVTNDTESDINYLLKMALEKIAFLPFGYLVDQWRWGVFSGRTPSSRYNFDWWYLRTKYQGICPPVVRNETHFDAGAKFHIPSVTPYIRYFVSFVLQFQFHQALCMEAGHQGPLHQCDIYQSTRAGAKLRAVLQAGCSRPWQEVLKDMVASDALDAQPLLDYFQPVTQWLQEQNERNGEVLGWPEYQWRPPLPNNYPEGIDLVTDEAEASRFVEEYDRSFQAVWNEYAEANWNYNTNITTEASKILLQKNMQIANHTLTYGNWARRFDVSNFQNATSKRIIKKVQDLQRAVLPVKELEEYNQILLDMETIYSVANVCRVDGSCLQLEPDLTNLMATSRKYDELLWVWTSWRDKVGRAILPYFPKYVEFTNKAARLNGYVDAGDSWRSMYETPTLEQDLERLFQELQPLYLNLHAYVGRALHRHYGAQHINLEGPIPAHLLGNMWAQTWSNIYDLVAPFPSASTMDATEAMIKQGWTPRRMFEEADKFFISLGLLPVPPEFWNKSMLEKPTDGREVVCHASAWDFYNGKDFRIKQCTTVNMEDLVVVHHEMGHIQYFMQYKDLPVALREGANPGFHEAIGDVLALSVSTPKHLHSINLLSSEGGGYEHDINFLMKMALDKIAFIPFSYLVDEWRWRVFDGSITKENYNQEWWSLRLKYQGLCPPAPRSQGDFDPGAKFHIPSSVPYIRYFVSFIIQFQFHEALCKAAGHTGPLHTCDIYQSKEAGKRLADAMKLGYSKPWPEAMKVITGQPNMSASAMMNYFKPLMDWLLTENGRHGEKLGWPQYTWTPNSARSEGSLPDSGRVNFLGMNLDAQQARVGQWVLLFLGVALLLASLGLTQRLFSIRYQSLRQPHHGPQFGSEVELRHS
Procedure: (§1) In vitro testing is most appropriate for the free carboxylic acids of the invention. The test compound is dissolved in dimethyl sulfoxide, ethanol, or 0.25 M sodium bicarbonate solution, and the solution is diluted with buffer to the desired concentration.
The buffer for the ACE assay is 300 mM NaCl, 100 mM KH2 PO4 (pH 8.3). The reaction is initiated by the addition of 100 μl of hippuryl-histidyl-leucine (2 mg/ml) to tubes containing enzyme and drug in a volume of 150 μl and tubes are incubated for 30 minutes at 37° C. The reaction is terminated by the addition of 0.75 ml 0.6 N NaOH. 100 μl of freshly prepared 0-pthaldehyde solution (2 mg/ml in methanol) is added to the tubes, the contents are mixed and allowed to stand at room temperature. After 10 minutes, 100 μl of 6 N HCl is added. The tubes are centrifuged and the supernatant optical density is read at 360 nm.

[2] = biological target: T2, neutral endopeptidase (NEP, EC 3.4.24.11) (Rattus norvegicus, UniProt P07861); assay: in vitro inhibition of neutral endopeptidase (GAAP assay); assay type: biochemical; conditions: GAAP 500 μM, rat kidney cortex membranes, pH 7.4, 25° C., 10 minutes
T2 construct: rat kidney cortex membranes prepared by method of Maeda; from tissue; host or cells: rat kidney cortex membranes
T2 sequence (P07861 1-750): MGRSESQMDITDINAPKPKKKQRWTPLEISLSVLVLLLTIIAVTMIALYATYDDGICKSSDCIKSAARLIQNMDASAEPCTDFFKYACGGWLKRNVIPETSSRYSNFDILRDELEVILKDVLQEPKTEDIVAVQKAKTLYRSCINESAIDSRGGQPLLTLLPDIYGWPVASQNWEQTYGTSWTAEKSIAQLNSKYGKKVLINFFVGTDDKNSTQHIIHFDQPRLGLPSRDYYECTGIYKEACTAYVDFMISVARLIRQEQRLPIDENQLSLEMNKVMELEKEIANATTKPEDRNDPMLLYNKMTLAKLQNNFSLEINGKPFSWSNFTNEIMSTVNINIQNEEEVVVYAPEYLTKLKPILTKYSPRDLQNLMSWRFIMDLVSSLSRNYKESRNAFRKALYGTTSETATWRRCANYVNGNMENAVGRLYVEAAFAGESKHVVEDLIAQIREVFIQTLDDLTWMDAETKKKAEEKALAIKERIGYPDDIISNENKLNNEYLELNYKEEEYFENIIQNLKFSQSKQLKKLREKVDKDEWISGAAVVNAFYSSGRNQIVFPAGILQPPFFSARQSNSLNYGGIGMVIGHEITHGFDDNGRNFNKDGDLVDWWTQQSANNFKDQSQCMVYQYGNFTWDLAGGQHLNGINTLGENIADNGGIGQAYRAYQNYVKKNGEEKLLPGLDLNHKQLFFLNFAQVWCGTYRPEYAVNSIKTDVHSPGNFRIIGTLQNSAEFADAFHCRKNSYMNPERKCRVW
Procedure: as §1
The in vitro inhibition of neutral endopeptidase (NEP, EC 3.4.24.11 ) can be determined as follows:
Neutral endopeptidase 3.4.24.11 activity is determined by the hydrolysis of the substrate glutaryl-Ala-Ala-Phe-2-naphthylamide (GAAP) using a modified procedure of Orlowski and Wilk (1981). The incubation mixture (total volume 125 μl) contains 4.2 μg of protein (rat kidney cortex membranes prepared by method of Maeda et at, 1983), 50 mM iris buffer, pH 7.4 at 25° C., 500 μM substrate (final concentration), and leucine aminopeptidase M (2.5 μg). The mixture is incubated for 10 minutes at 25° C. and 100 μl of fast garnet (250 μg fast garnet/ml of 10% Tween 20 in 1 M sodium acetate, pH 4.2) is added. Enzyme activity is measured spectrophotometrically at 540 nm. One unit of NEP 24.11 activity is defined as 1 nmol of 2-naphthylamine released per minute at 25° C at pH 7.4. IC50 values are determined, i.e. the concentration of test compound required for 50% inhibition of the release of 2-naphthylamine.

[3] = tested on: Angiotensin I induced pressor response; assay: inhibition of the angiotensin I induced pressor response in normotensive rats; assay type: in vivo, rat; conditions: 10 mg/Kg p.o., angiotensin I 300 ng/kg i.v.
Procedure: The in vivo test for intravenously administered compounds is performed with male, normotensive rats, which are anesthetized with sodium metofan. A femoral artery and femoral vein are cannulated respectively for direct blood pressure measurement on i.v. administration of angiotensin I and i.v. or p.o. administration of a compound of this invention. After the basal blood pressure is stabilized, pressor responses to 3 challenges of 300 ng/kg angiotensin I i.v., at 15 minute intervals, are obtained. Such pressure responses are usually again obtained at 15, 30, 60 and 90 minutes, and then every hour up to 6 hours after i.v. or p.o. administration of the compound to be tested, and compared with the initial responses. Any observed decrease of said pressor response is an indication of Angiotensin I converting enzyme inhibition.

IC50 ([1]; hippuryl-histidyl-leucine substrate, pH 8.3, 37° C., 30 minutes, read-out: IC50 in the ACE in vitro assay) [nM] | Compound | IC50 [1] [nM] | IC50 [2] [nM] | duration of inhibition of the Angiotensin I induced pressor response [3]
– | COc1ccc(C[C@H](NC(=O)C2(NC(=O)[C@@H](S)C(C)C)CCCC2)C(=O)O)cc1 [Example 2i] | ~19 | ~2.2 | –
– | CCOC(=O)[C@H](Cc1ccc(O)cc1)NC(=O)C1(NC(=O)[C@@H](SC(C)=O)C(C)C)CCCC1 [1 (b), N-[[1-[(2(S)-acetylmercapto-3-methyl-1-oxobutyl)amino]-1-cyclopentyl]carbonyl]-L-tyrosine ethyl ester] | – | – | six
~7 | CC(C)[C@H](S)C(=O)NC1(C(=O)N[C@@H](Cc2ccc(O)cc2)C(=O)O)CCCC1 [Example 2a] | – | ~2 | –
